Experimental data reported in patent US8093285B2, “Aminopiperidinyl derivatives and uses thereof” (Roche Palo Alto LLC, priority 2008, dated 2012).

Assays:
Type in all cases: binding
[1] = target: T1, human serotonin transporter (hSERT) (Homo sapiens, UniProt P31645); test: Screening for human serotonin transporter (hSERT) antagonists, scintillation proximity assay (SPA); details: competition with [3H]-Citalopram; membranes of HEK-293 cells expressing recombinant hSERT
T1 construct: expressed in transfected cells; Tatsumi et al. 1997
Procedure: The screening assay of this example was used to determine the affinity of ligands at the hSERT transporter by competition with [^3H]-Citalopram.
Scintillation Proximity Assay (SPA) works by bringing radioligand within close proximity to the bead's scintillant to stimulate light emission. In this assay, the receptor-containing membranes were pre-coupled to the SPA beads and the binding of the appropriate radioligand to the transporter was measured. The light emission was proportional to the amount of bound radioligand. Unbound radioligand produced no signal as a result of distant proximity to scintillant (lack of energy transfer). […]
(§1) Cell membranes were prepared using a membrane preparation buffer of 50 mM TRIS (pH 7.4). […] After a second centrifugation, the pellet was re-homogenized and brought to a final volume determined during the assay. […]
The % inhibition was calculated for each compound tested [(Compound counts per minute (CPM) at maximum concentration-Non-Specific CPM)/Total CPM*100]. […]
(§2) [formula] where max=total binding, min=non specific binding, x=concentration (M) of the tested compound and n=Hill slope. The inhibition dissociation constant (Ki) of each compound was determined according to the method of Cheng-Prusoff and then converted into negative logarithm (pKi) of the Ki.

[2] = target: T2, human norepinephrine transporter (hNET) (Homo sapiens, UniProt P23975); test: Screening for compounds active at human norepinephrine transporter (hNET), scintillation proximity assay (SPA); details: competition with [3H]-Nisoxetine; membranes of HEK-293 cells expressing recombinant hNET
T2 construct: expressed in transfected cells; Clone: HEK-hNET #2)
Procedure: This assay was used to determine the affinity of ligands for the hNET transporter by competition with [^3H]-Nisoxetine. As in the hSERT assay of the above example, receptor-containing membranes were pre-coupled to the SPA beads and the binding of the appropriate radioligand to the transporter was measured. The light emission was proportional to the amount of bound radioligand, with unbound radioligand producing no signal.
HEK-293 cells (Tatsumi et al., Eur. J. Pharmacol. 1997, 30, 249-258) stably expressing recombinant hNET (Clone: HEK-hNET #2) were maintained with media (DMEM hi glucose with 10% FBS, 300 μg/ml G418 and 2 mM L-Glutamine) and incubated at 37° C. with 5% CO2. Cells were released from culture flasks using PBS for 1-2 minutes. […]
as §1
^3[H] […] The mixtures were allowed to stand at room temperature for one hour, and were then counted on a Packard TopCount LCS, a generic SPA counting protocol settings (Energy Range: Low, Efficiency Mode: Normal, Region A: 1.50-35.00, Region B: 1.50-256.00, Count Time (min.): 0.40, Background Subtract: none, Half-Life Correction: no, Quench Indicator: tSIS, Platemap blank subtraction: No, Cross talk reduction: Off). […]

[3] = target: T3, human dopamine transporter (hDAT) (Homo sapiens, UniProt Q01959); test: Screening for compounds active at human dopamine transporter, scintillation proximity assay (SPA); details: competition with [3H]-Vanoxerine; HEK-293 cells expressing recombinant hDAT
T3 construct: expressed in transfected cells; Tatsumi et al. 1997
Procedure: This assay was used to determine the affinity of ligands for the dopamine transporter by competition with [^3H]-Vanoxerine.
HEK-293 cells (Tatsumi et al., Eur. J. Pharmacol. 1997, 30, 249-258) stably expressing recombinant hDAT were maintained with media (DMEM hi glucose with 10% FBS, 300 μg/ml G418 and 2 mM L-Glutamine) and incubated at 37° C. with 5% CO2. Cells were plated four hours prior to experiment by placing approximately 30,000 cells per well (in PBS) on white, opaque Cell-Tak coated 96 well plates. Extra buffer was apriated from the cell plates using an ELx405 plate washer.
^3[H] vanoxerine (GBR 12909) radioligand, specific activity approximately 59 Ci/mmol, stock concentration, 400 nM, and 50 mM Tris-HCl, 300 mM NaCl, (pH 7.4) buffers were used for Scintillation Proximity Assay IC50/Ki determination. […]
The % inhibition was calculated for each compound tested [(Compound CPM at maximum concentration-Non-Specific CPM)/Total CPM*100]. […]
as §2

T2 sequence (P23975 whole entry): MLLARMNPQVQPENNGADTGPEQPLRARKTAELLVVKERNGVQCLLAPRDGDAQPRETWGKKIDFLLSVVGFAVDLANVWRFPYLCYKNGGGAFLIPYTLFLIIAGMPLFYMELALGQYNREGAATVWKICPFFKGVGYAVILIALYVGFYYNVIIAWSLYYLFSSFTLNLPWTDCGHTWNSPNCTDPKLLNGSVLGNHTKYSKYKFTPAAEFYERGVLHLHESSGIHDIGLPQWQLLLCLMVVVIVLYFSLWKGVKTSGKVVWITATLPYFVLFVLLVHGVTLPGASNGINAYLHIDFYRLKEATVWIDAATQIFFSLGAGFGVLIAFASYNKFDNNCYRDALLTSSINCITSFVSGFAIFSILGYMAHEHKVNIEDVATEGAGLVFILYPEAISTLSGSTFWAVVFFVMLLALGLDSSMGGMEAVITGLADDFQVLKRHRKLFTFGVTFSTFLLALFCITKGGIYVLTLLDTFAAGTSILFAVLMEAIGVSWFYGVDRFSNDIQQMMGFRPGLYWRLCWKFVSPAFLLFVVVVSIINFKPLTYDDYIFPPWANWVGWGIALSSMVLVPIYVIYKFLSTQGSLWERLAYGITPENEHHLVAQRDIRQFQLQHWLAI
T3 sequence (Q01959 whole entry): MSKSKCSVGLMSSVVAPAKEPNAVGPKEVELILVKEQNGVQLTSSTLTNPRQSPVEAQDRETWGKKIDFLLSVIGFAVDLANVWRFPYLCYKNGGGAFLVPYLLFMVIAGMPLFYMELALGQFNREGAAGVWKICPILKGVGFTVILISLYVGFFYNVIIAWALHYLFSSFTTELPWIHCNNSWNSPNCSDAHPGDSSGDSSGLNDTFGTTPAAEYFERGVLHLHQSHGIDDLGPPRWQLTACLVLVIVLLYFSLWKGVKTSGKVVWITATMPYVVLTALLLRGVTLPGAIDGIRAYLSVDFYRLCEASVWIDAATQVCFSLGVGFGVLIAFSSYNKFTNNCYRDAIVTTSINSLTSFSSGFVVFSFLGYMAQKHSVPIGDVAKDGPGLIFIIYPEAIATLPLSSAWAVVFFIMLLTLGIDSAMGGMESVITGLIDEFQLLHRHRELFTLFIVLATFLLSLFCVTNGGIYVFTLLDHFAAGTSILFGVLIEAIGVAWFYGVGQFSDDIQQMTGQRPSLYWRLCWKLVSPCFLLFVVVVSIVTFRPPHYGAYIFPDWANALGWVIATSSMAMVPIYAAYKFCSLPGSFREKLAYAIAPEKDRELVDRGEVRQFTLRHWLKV
T1 sequence (P31645 whole entry): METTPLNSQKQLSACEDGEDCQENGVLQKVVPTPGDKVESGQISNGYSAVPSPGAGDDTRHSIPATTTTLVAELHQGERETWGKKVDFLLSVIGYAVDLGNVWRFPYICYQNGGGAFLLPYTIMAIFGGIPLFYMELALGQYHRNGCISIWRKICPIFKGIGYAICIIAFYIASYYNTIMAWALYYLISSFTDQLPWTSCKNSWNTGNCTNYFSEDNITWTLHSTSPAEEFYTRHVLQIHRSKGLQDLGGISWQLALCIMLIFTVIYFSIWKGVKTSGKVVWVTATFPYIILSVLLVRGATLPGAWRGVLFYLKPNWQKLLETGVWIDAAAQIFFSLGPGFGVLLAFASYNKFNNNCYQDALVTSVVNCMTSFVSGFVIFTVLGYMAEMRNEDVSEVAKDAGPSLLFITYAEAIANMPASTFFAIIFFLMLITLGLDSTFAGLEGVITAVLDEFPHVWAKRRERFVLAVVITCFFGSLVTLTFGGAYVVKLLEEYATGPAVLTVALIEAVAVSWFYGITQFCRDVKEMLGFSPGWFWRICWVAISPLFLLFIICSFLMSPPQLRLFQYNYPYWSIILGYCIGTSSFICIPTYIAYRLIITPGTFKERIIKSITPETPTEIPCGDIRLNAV

## Fc1cccc(CN(c2ccc3[nH]ncc3c2)C2CCNCC2)c1 [Compound 53, (3-Fluoro-benzyl)-(1H-indazol-5-yl)-piperidin-4-yl-amine]
[1]
  Ki: ~0.316 nM

## COc1cccc(CN(c2ccc3[nH]ncc3c2)C2CCNCC2)c1 [Compound 54, (1H-Indazol-5-yl)-(3-methoxy-benzyl)-piperidin-4-yl-amine]
[2]
  Ki: ~1.58 nM

## NS(=O)(=O)c1cccc(CN(c2ccc3[nH]ccc3c2)C2CCNCC2)c1 [Compound 69, 3-{[(1H-Indol-5-yl)-piperidin-4-yl-amino]-methyl}-benzenesulfonamide]
[3]
  Ki: ~10 nM
